Assay results taken from US20030162759A1, “Aldosterone blocker therapy to prevent or treat inflammation-related disorders” (priority 2000, published 2003).
“And” between values parts separate entries of the source, which are not always exact repeats. Equal values may be shown once.

How the values were obtained:
[1] = system: aldosterone + salt treated rats; experiment: Assay C further aldosterone infusion study: radiotelemetrized systolic blood pressure; format: in vivo, rat
From the text: Assay C: Further in vivo Aldosterone Infusion Study The procedure of Assay B was expanded upon in a further study. […] Myocardial tissue from animals in each treatment group was examined after 7, 14, or 30 days of treatment. […] Lesions were preceded by the expression and progressive upregulation of proinflammatory molecules. […] Male Sprague-Dawley rats, weighing 230 to 250 g, (Harlan Sprague-Dawley Industries, Indianapolis, Ind.) were housed in a room 12-hours light/12-hours dark daily cycle at an ambient temperature of 22±1° C. (n=96). Animals were allowed one week to adjust after arrival and had free access to TEKLAD 22/5 rodent diet (Harlan TEKLAD, Madison, Wis.) and tap water until the initiation of the experiment. Prior to surgery the animals were individually weighed and placed in one of the following groups: […] Potassium chloride supplementation was added to the saline solution in order to prevent the potential hypokalemia associated with aldosterone excess. […] Louis, Mo.) was inserted subcutaneously at the nape of the neck. Aldosterone was administered at a dose of […]. […] Animals were sacrificed from each group (n=8-13) after 7, 14, or 30 days of treatment. Animals to be sacrificed after 7 or 14 days of treatment were uninephrectomized and implanted with an Alzet minipump. Animals treated for 30 days were uninephrectomized, fitted for Alzet minipumps, and implanted with radio telemetry units (model#TA11PA-C40, Data Sciences Inc., St. Paul, Minn.) according to the following procedure. […] The surgery site was clipped, scrubbed with nolvasan, and sprayed with betadine. A rostral-caudal incision was made through the skin from the base of the rib cage to the pubic region using a #11 scalpel blade. A second incision was made through the muscles of the abdominal wall to expose the peritoneal cavity. […] Organs were carefully displaced with tissue retractors in order to expose the abdominal aorta. A 1.5 cm segment just rostral to the bifurcation of the abdominal aorta into the iliac arteries was cleared of excessive connective tissue and 4-0 silk was used to make an anchor adjacent to the aorta. A microvascular clip was then placed at both ends of the cleaned region to stop excessive blood flow. Using a bent, 21 gauge needle, the abdominal aorta was penetrated. The cannula of the radio telemetry unit was inserted and stabilized in the aorta using the 4-0 silk anchor. Organs were repositioned and the telemetry unit was placed over the organs. Using a non-interrupted suture pattern with 4-0 silk, the abdominal wall was closed, and the skin was subsequently closed using a 4-0 silk in an interrupted suture pattern. […] Post-operative care included monitoring the animals on a heating pad during recovery from anesthesia until sternal recumbency was reestablished. Radiotelemetrized arterial blood pressure was calculated with the […] Version 1.1-Gold software (Data Sciences International, St. Paul, Minn.). Data points were collected over a 24 hour period with the collection rate set for a 10 second reading every 5 min for each animal. The 24 hour period used was from 6:00 a.m. to 6:00 a.m.

[2] = system: aldosterone + salt treated rats; experiment: Assay C further aldosterone infusion study: body weight, ventricle weights, tibia length (myocardial hypertrophy); format: in vivo, rat; details: for Ventricular weights and ventricular weight to tibia length ratios (hypertrophy): 7, 14, 30 days
From the text: Assay C: Further in vivo Aldosterone Infusion Study The procedure of Assay B was expanded upon in a further study. […] Myocardial tissue from animals in each treatment group was examined after 7, 14, or 30 days of treatment. […] Lesions were preceded by the expression and progressive upregulation of proinflammatory molecules. […] Male Sprague-Dawley rats, weighing 230 to 250 g, (Harlan Sprague-Dawley Industries, Indianapolis, Ind.) were housed in a room 12-hours light/12-hours dark daily cycle at an ambient temperature of 22±1° C. (n=96). Animals were allowed one week to adjust after arrival and had free access to TEKLAD 22/5 rodent diet (Harlan TEKLAD, Madison, Wis.) and tap water until the initiation of the experiment. Prior to surgery the animals were individually weighed and placed in one of the following groups: […] Potassium chloride supplementation was added to the saline solution in order to prevent the potential hypokalemia associated with aldosterone excess. […] Louis, Mo.) was inserted subcutaneously at the nape of the neck. Aldosterone was administered at a dose of […]. […] Animals were sacrificed from each group (n=8-13) after 7, 14, or 30 days of treatment. Animals to be sacrificed after 7 or 14 days of treatment were uninephrectomized and implanted with an Alzet minipump. Animals treated for 30 days were uninephrectomized, fitted for Alzet minipumps, and implanted with radio telemetry units (model#TA11PA-C40, Data Sciences Inc., St. Paul, Minn.) according to the following procedure. […] The surgery site was clipped, scrubbed with nolvasan, and sprayed with betadine. A rostral-caudal incision was made through the skin from the base of the rib cage to the pubic region using a #11 scalpel blade. A second incision was made through the muscles of the abdominal wall to expose the peritoneal cavity. […] Organs were carefully displaced with tissue retractors in order to expose the abdominal aorta. A 1.5 cm segment just rostral to the bifurcation of the abdominal aorta into the iliac arteries was cleared of excessive connective tissue and 4-0 silk was used to make an anchor adjacent to the aorta. A microvascular clip was then placed at both ends of the cleaned region to stop excessive blood flow. Using a bent, 21 gauge needle, the abdominal aorta was penetrated. The cannula of the radio telemetry unit was inserted and stabilized in the aorta using the 4-0 silk anchor. Organs were repositioned and the telemetry unit was placed over the organs. Using a non-interrupted suture pattern with 4-0 silk, the abdominal wall was closed, and the skin was subsequently closed using a 4-0 silk in an interrupted suture pattern. […] Post-operative care included monitoring the animals on a heating pad during recovery from anesthesia until sternal recumbency was reestablished. At the cessation of each experimental time point, the animals were anesthetized with pentobarbital (65 mg/kg i.p., Sigma Chemical, St. Louis Mo.) and weighed with a Mettler PM6000 balance (Mettler-Toledo, Inc., Hightstown, N.J.). The abdominal cavity was opened to expose the abdominal aorta. A 16-gauge needle was inserted into the abdominal aorta and the animal was exsanguinated into a 12 cc syringe. The blood sample was transferred immediately into glass serum collection tubes (Terumo Medical Corp., Elkton, Md.) for drug level analysis. The samples were placed on wet ice until sample collection was complete and centrifuged for 15 min at 3000 rev/min at 4° C. Following exsanguination, hearts and kidneys were isolated, removed, rinsed in cold phosphate-buffered saline, and blotted dry.

[3] = group Mean row of Table 9.11, 7 days of treatment
[4] = individual rats, 7 days of treatment, eplerenone 100 mg/kg/day, listed as Aldosterone + salt
[5] = mean ± SEM after 30 days of treatment, eplerenone 100 mg/kg/day

In the case of `C[C@]12CCC(=O)C=C1CC[C@@H]1[C@@H]2[C@@H](O)C[C@]2(C=O)[C@@H](C(=O)CO)CC[C@@H]12` [aldosterone], the “Systolic Blood Pressure” value ([1]; Day 3, mean ± SEM of values every 5 min over 24-hour period) is reported as 132 ± 6 mmHg, the “Systolic Blood Pressure” value ([1]; Day 5, mean ± SEM of values every 5 min over 24-hour period) is reported as 137 ± 4 mmHg and the “Systolic Blood Pressure” value ([1]; Day 6, mean ± SEM of values every 5 min over 24-hour period) is reported as 148 ± 5 mmHg. For the same compound, the “Systolic Blood Pressure” value ([1]; Day 7, mean ± SEM of values every 5 min over 24-hour period) was 155 ± 5 mmHg, the “Systolic Blood Pressure” value ([1]; Day 8, mean ± SEM of values every 5 min over 24-hour period) was 156 ± 4 mmHg and the “Systolic Blood Pressure” value ([1]; Day 9, mean ± SEM of values every 5 min over 24-hour period) was 164 ± 5 mmHg. The “Systolic Blood Pressure” value ([1]; Day 11, mean ± SEM of values every 5 min over 24-hour period) was 171 ± 6 mmHg, the “Systolic Blood Pressure” value ([1]; Day 12, mean ± SEM of values every 5 min over 24-hour period) was 178 ± 6 mmHg and the “Systolic Blood Pressure” value ([1]; Day 13, mean ± SEM of values every 5 min over 24-hour period) was 182 ± 6 mmHg. The “Systolic Blood Pressure” value ([1]; Day 15, mean ± SEM of values every 5 min over 24-hour period) was 181 ± 5 mmHg, the “Systolic Blood Pressure” value ([1]; Day 16, mean ± SEM of values every 5 min over 24-hour period) was 187 ± 6 mmHg and the “Systolic Blood Pressure” value ([1]; Day 17, mean ± SEM of values every 5 min over 24-hour period) was 195 ± 7 mmHg. For the same compound, the “Systolic Blood Pressure” value ([1]; Day 18, mean ± SEM of values every 5 min over 24-hour period) was 196 ± 6 mmHg, the “Systolic Blood Pressure” value ([1]; Day 19, mean ± SEM of values every 5 min over 24-hour period) was 200 ± 6 mmHg and the “Systolic Blood Pressure” value ([1]; Day 20, mean ± SEM of values every 5 min over 24-hour period) was 203 ± 5 mmHg. The “Systolic Blood Pressure” value ([1]; Day 21, mean ± SEM of values every 5 min over 24-hour period) was 208 ± 4 mmHg, the “Systolic Blood Pressure” value ([1]; Day 22, mean ± SEM of values every 5 min over 24-hour period) was 209 ± 4 mmHg and the “Systolic Blood Pressure” value ([1]; Day 23, mean ± SEM of values every 5 min over 24-hour period) was 208 ± 4 mmHg. The “Systolic Blood Pressure” value ([1]; Day 24, mean ± SEM of values every 5 min over 24-hour period) was 210 ± 3 mmHg, the “Systolic Blood Pressure” value ([1]; Day 25, mean ± SEM of values every 5 min over 24-hour period) was 210 ± 4 mmHg and the “Systolic Blood Pressure” value ([1]; Day 26, mean ± SEM of values every 5 min over 24-hour period) was 210 ± 3 mmHg. For the same compound, the Systolic Blood Pressure ([1]; uninephrectomized Sprague-Dawley rats, 1% NaCl-0.3% KCl, aldosterone infusion, eplerenone 100 mg/kg/day, up to 30 days, listed as Aldosterone+salt) was “progressive increase in blood pressure with time”, the Systolic Blood Pressure ([1]; uninephrectomized Sprague-Dawley rats, 1% NaCl-0.3% KCl, aldosterone infusion, eplerenone 100 mg/kg/day, up to 30 days, listed as Aldosterone/salt) was “induced severe hypertension” and the “Ventricular weights and ventricular weight to tibia length ratios (hypertrophy)” value ([2]; eplerenone 100 mg/kg/day) was “Significant left and right ventricular hypertrophy”. The “Final Body Weight” value [2, 3] was 277 g, the “Right Ventricle Weight/Tibia Length” value [2, 3] was 48 mg/cm and the “Left Ventricle Weight” value [2, 4] was 620 mg. For the same compound, the “Left Ventricle Weight/Tibia Length” value [2, 4] was 200 mg/cm, the “Right Ventricle Weight/Tibia Length” value [2, 4] was 48 mg/cm and 49 mg/cm and 57 mg/cm and 47 mg/cm (2×) and 44 mg/cm and 41 mg/cm and 51 mg/cm and 55 mg/cm and the “Left Ventricle Weight” value [2, 5] was 910 ± 29 mg. For the same compound, the “Right Ventricle Weight” value [2, 5] was 192 ± 8 mg, the Right Ventricle Weight/Tibia Length [2, 5] was 49 ± 2 mg/cm and the “Tibia Length” value [2, 5] was 3.9 ± 0.02 cm.

In the case of `COC(=O)[C@@H]1CC2=CC(=O)CC[C@]2(C)[C@@]23O[C@@H]2C[C@@]2(C)[C@@H](CC[C@@]24CCC(=O)O4)[C@H]13` [eplerenone, Pregn-4-ene-7,21-dicarboxylic acid, 9,11-epoxy-17-hydroxy-3-oxo-, γ-lactone, methyl ester, (7α, 11α, 17β) -], the Systolic Blood Pressure ([1]; uninephrectomized Sprague-Dawley rats, 1% NaCl-0.3% KCl, aldosterone infusion, eplerenone 100 mg/kg/day, up to 30 days) is reported as “significantly reduced”, the Systolic Blood Pressure ([1]; uninephrectomized Sprague-Dawley rats, 1% NaCl-0.3% KCl, aldosterone infusion, eplerenone 100 mg/kg/day, up to 30 days, listed as eplerenone+aldosterone+salt) is reported as “significantly reduced at days 8-30” and the “Ventricular weights and ventricular weight to tibia length ratios (hypertrophy)” value ([2]; eplerenone 100 mg/kg/day) is reported as “did not impact absolute ventricular weights or ventricular weight to tibia length ratios”. For the same compound, the “Right Ventricle Weight/Tibia Length” value ([2]; Table 9.13, 30-day protocol, eplerenone 100 mg/kg/day, individual rats, listed as Eplerenone + aldosterone + salt) was 50 mg/cm, the “Decrease in body weight induced by aldosterone+salt” value ([2]; day 30, eplerenone 100 mg/kg/day) was “significantly attenuated” and the “Final Body Weight” value ([2]; individual rats, 7 days of treatment, eplerenone 100 mg/kg/day, listed as Eplerenone + aldosterone + salt) was 306 g and 295 g (2×) and 277 g and 276 g. The Left Ventricle Weight/Tibia Length [2, 5] was 240 ± 9 mg/cm and the Right Ventricle Weight/Tibia Length [2, 5] was 51 ± 2 mg/cm.
